According to the NIST ThermoML archive (doi:10.1016/j.fluid.2014.10.002):
Where “and” joins values, the source holds several entries; their conditions need not be identical. Identical values can stand only once.

Conditions: Liquid, Vibrating wire viscometry

CCCCC(CC)COC(=O)c1ccc(C(=O)OCC(CC)CCCC)c(C(=O)OCC(CC)CCCC)c1 (stereo unspecified) [tris(2-ethylhexyl) trimellitate]
Conditions | viscosity
343.14 K, 49870 kPa | 53.82 mPa·s and 53.79 mPa·s
343.14 K, 50340 kPa | 53.74 mPa·s
343.14 K, 50350 kPa | 53.88 mPa·s
343.14 K, 50360 kPa | 53.81 mPa·s and 53.95 mPa·s and 53.91 mPa·s
343.14 K, 65050 kPa | 68.46 mPa·s
343.14 K, 65060 kPa | 68.25 mPa·s
343.14 K, 65070 kPa | 68.22 mPa·s
343.14 K, 65080 kPa | 68.37 mPa·s
343.14 K, 65100 kPa | 68.38 mPa·s
343.15 K, 1040 kPa | 22.81 mPa·s
343.15 K, 1050 kPa | 22.74 mPa·s
343.15 K, 1060 kPa | 22.78 mPa·s
343.15 K, 1070 kPa | 22.74 mPa·s
343.15 K, 1090 kPa | 22.81 mPa·s
343.15 K, 2540 kPa | 23.48 mPa·s and 23.4 mPa·s
343.15 K, 2580 kPa | 23.42 mPa·s
343.15 K, 4800 kPa | 24.49 mPa·s
343.15 K, 4820 kPa | 24.51 mPa·s
343.15 K, 4880 kPa | 24.44 mPa·s
343.15 K, 4900 kPa | 24.44 mPa·s and 24.52 mPa·s and 24.43 mPa·s
343.15 K, 7530 kPa | 25.82 mPa·s
343.15 K, 7590 kPa | 25.76 mPa·s
343.15 K, 7630 kPa | 25.78 mPa·s
343.15 K, 7650 kPa | 25.77 mPa·s
343.15 K, 10140 kPa | 27.08 mPa·s
343.15 K, 15040 kPa | 29.65 mPa·s and 29.63 mPa·s
343.15 K, 15050 kPa | 29.64 mPa·s
343.15 K, 15060 kPa | 29.74 mPa·s
343.15 K, 15070 kPa | 29.73 mPa·s
343.15 K, 15090 kPa | 29.74 mPa·s
358.18 K, 2460 kPa | 14.15 mPa·s
358.18 K, 2470 kPa | 14.13 mPa·s
358.18 K, 2480 kPa | 14.11 mPa·s
358.18 K, 2490 kPa | 14.11 mPa·s
358.18 K, 2500 kPa | 14.16 mPa·s
358.18 K, 2530 kPa | 14.14 mPa·s
358.18 K, 4840 kPa | 14.65 mPa·s
358.18 K, 4860 kPa | 14.68 mPa·s
358.18 K, 4920 kPa | 14.69 mPa·s
358.18 K, 4960 kPa | 14.64 mPa·s
358.18 K, 4990 kPa | 14.64 mPa·s
358.18 K, 7360 kPa | 15.35 mPa·s
358.18 K, 7370 kPa | 15.37 mPa·s
358.18 K, 7390 kPa | 15.35 mPa·s
358.18 K, 7410 kPa | 15.34 mPa·s
358.18 K, 7420 kPa | 15.37 mPa·s and 15.38 mPa·s
358.18 K, 10350 kPa | 16.11 mPa·s
358.18 K, 10380 kPa | 16.12 mPa·s
358.18 K, 10410 kPa | 16.11 mPa·s
358.18 K, 15320 kPa | 17.52 mPa·s
358.18 K, 20050 kPa | 18.99 mPa·s
358.18 K, 20070 kPa | 19.03 mPa·s and 18.97 mPa·s
358.18 K, 20090 kPa | 18.99 mPa·s
358.18 K, 20120 kPa | 18.99 mPa·s
358.18 K, 20130 kPa | 19.05 mPa·s
358.18 K, 40240 kPa | 26.25 mPa·s
358.18 K, 40250 kPa | 26.27 mPa·s
358.18 K, 40260 kPa | 26.24 mPa·s
358.18 K, 40280 kPa | 26.21 mPa·s
358.18 K, 40290 kPa | 26.24 mPa·s
358.19 K, 1290 kPa | 13.79 mPa·s
358.19 K, 1330 kPa | 13.79 mPa·s
358.19 K, 1380 kPa | 13.85 mPa·s
358.19 K, 10470 kPa | 16.13 mPa·s
358.19 K, 15340 kPa | 17.51 mPa·s
358.19 K, 15360 kPa | 17.51 mPa·s
358.19 K, 15370 kPa | 17.52 mPa·s
358.19 K, 15390 kPa | 17.53 mPa·s
358.19 K, 15410 kPa | 17.54 mPa·s
358.19 K, 30310 kPa | 22.42 mPa·s
358.19 K, 30360 kPa | 22.4 mPa·s
358.19 K, 30380 kPa | 22.43 mPa·s and 22.47 mPa·s and 22.46 mPa·s
358.19 K, 50360 kPa | 30.62 mPa·s
358.19 K, 50380 kPa | 30.63 mPa·s
358.19 K, 50390 kPa | 30.61 mPa·s
358.19 K, 50400 kPa | 30.65 mPa·s
358.19 K, 50420 kPa | 30.65 mPa·s
358.19 K, 65540 kPa | 38.26 mPa·s
358.19 K, 65550 kPa | 38.23 mPa·s
358.19 K, 65570 kPa | 38.28 mPa·s
358.19 K, 65600 kPa | 38.23 mPa·s
358.19 K, 65610 kPa | 38.23 mPa·s
373.17 K, 1070 kPa | 8.988 mPa·s and 8.981 mPa·s and 8.984 mPa·s
373.17 K, 1080 kPa | 8.99 mPa·s
373.17 K, 2690 kPa | 9.227 mPa·s
373.17 K, 2720 kPa | 9.242 mPa·s
373.17 K, 2730 kPa | 9.241 mPa·s
373.17 K, 5100 kPa | 9.651 mPa·s
373.17 K, 5110 kPa | 9.649 mPa·s and 9.654 mPa·s
373.17 K, 5120 kPa | 9.651 mPa·s
373.17 K, 5130 kPa | 9.669 mPa·s
373.17 K, 5140 kPa | 9.653 mPa·s
373.17 K, 7440 kPa | 10.06 mPa·s
373.17 K, 7470 kPa | 10.05 mPa·s
373.17 K, 7480 kPa | 10.03 mPa·s
373.17 K, 7500 kPa | 10.03 mPa·s
373.17 K, 10430 kPa | 10.53 mPa·s
373.17 K, 10450 kPa | 10.57 mPa·s
373.17 K, 15160 kPa | 11.29 mPa·s
373.17 K, 15180 kPa | 11.28 mPa·s
373.17 K, 15210 kPa | 11.32 mPa·s and 11.33 mPa·s and 11.27 mPa·s
373.17 K, 65290 kPa | 23.71 mPa·s
373.18 K, 2460 kPa | 9.209 mPa·s and 9.224 mPa·s and 9.213 mPa·s
373.18 K, 2470 kPa | 9.234 mPa·s
373.18 K, 2500 kPa | 9.245 mPa·s
373.18 K, 2710 kPa | 9.252 mPa·s
373.18 K, 10440 kPa | 10.57 mPa·s
373.18 K, 10450 kPa | 10.52 mPa·s
373.18 K, 10460 kPa | 10.56 mPa·s
373.18 K, 20250 kPa | 12.27 mPa·s and 12.26 mPa·s
373.18 K, 20260 kPa | 12.27 mPa·s
373.18 K, 20270 kPa | 12.29 mPa·s
373.18 K, 20290 kPa | 12.3 mPa·s
373.18 K, 20320 kPa | 12.28 mPa·s
373.18 K, 29980 kPa | 14.31 mPa·s
373.18 K, 29990 kPa | 14.32 mPa·s
373.18 K, 30000 kPa | 14.27 mPa·s
373.18 K, 30010 kPa | 14.3 mPa·s
373.18 K, 30030 kPa | 14.28 mPa·s
373.18 K, 40130 kPa | 16.58 mPa·s
373.18 K, 40140 kPa | 16.57 mPa·s
373.18 K, 40150 kPa | 16.63 mPa·s
373.18 K, 40170 kPa | 16.61 mPa·s
373.18 K, 40190 kPa | 16.64 mPa·s
373.18 K, 50280 kPa | 19.18 mPa·s
373.18 K, 50290 kPa | 19.21 mPa·s and 19.23 mPa·s
373.18 K, 50310 kPa | 19.17 mPa·s
373.18 K, 50320 kPa | 19.23 mPa·s
373.18 K, 65330 kPa | 23.7 mPa·s
373.18 K, 65350 kPa | 23.72 mPa·s
373.18 K, 65370 kPa | 23.68 mPa·s
